In PMC7359744 (ACS chemical neuroscience, 2020):

Key:
male C57 BL/6 mice = assay: animal or person; assay type: in vivo
[1] = tested on: human μ-opioid receptor β-arrestin-2; assay type: cell-based
[2] = target: human κ-opioid receptor (OPRK1) (Homo sapiens, UniProt P41145); assay type: cell-based; settings: read-out: KOR EC50 ± SEM
Chain of human κ-opioid receptor (OPRK1) (P41145 whole entry): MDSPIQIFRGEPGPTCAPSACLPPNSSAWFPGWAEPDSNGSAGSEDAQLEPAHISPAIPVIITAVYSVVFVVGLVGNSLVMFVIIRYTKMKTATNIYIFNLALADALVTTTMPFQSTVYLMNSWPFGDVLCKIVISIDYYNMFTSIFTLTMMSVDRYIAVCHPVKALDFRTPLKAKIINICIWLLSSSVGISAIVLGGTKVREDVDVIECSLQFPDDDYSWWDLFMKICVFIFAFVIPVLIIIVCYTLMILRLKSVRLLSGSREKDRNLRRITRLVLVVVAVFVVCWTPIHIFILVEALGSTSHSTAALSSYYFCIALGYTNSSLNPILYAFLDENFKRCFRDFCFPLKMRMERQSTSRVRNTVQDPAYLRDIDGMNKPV

Row | Compound | ED50 (male C57 BL/6 mice; Mus musculus, 24 h, read-out: antinociceptive ED50, day 1) [mg/kg] | antinociceptive tolerance on day 9 compared to day 1 (male C57 BL/6 mice; mouse, in vivo, sc) | onset of tolerance (male C57 BL/6 mice; mouse, in vivo, sc) [days] | Bias Factor [1] | β-arrestin recruitment % Efficacy [1] | EC50 [2] [µM] | antinociceptive ED50, day 1 (male C57 BL/6 mice; mouse, in vivo) [mg/kg] | antinociceptive ED50, day 9 (male C57 BL/6 mice; mouse, in vivo) [mg/kg]
1 | CN1CC[C@]23c4c5ccc(O)c4O[C@H]2[C@@H](O)C=C[C@H]3[C@H]1C5 [Morphine] | 6.43 ± 0.27 | significant induction of tolerance | 5 | – | – | – | – | –
2 | C[C@@H](NC(=O)[C@@H](N)Cc1ccc(O)cc1)C(=O)NCC(=O)N(C)[C@@H](Cc1ccccc1)C(=O)NCCO [DAMGO] | – | – | – | 1 | 42 ± 5 (97) % | – | – | –
3 | COC(=O)[C@@H]1C=C(OC(=O)c2ccccc2)C(=O)[C@H]2[C@@]1(C)CC[C@H]1C(=O)O[C@H](c3ccoc3)C[C@]21C [Compound 1, kurkinorin] | – | reduced tolerance compared to morphine | – | – | – | > 10 | 5 ± 0.51 | 7.9 ± 0.11
